In test [1] the test system is RAW264.7. Kind of test: Effect on IL-6 level in LPS-indeced mouse RAW264.7 cells at 10 uM preincubated for 1 hr followed by LPS addition measured after 24 hrs by ELISA. The test is classed as functional, cell-based. For orientation: ELISA stands for enzyme-linked immunosorbent assay.
The subject of test [2] is Mus musculus. The test is described as follows: Effect on liver sEH enzyme activity in BALB/c mouse model of carrageenan-induced paw edema at 1 to 10 mg/kg, po measured after 6 hrs. Type of test: functional, organism-based. Particulars: dose 1-10 mg/kg. (In general: The carrageenan paw model is a standard test of acute inflammation.)
In test [3] the test system is Mus musculus. The test is described as follows: Anti-inflammatory activity in BALB/c mouse model of carrageenan-induced paw edema assessed as increase in ratio of 8,9-EET to DHET plasma levels at 10 mg/kg, po measured after 6 hrs. Type of test: functional, organism-based.
For test [4], the system named is Mus musculus. Kind of test: Anti-inflammatory activity in BALB/c mouse model of carrageenan-induced paw edema assessed as decrease in plasma 14,15-DHET levels at 10 mg/kg, po measured after 6 hrs. Type of test: functional, organism-based.
The subject of test [5] is RAW264.7. Kind of test: Upregulation of IL-10 level in LPS-indeced mouse RAW264.7 cells at 10 uM preincubated for 1 hr followed by LPS addition measured after 24 hrs by ELISA. The test is classed as functional, cell-based.
Test [6] relates to RAW264.7. The test is described as follows: Anti-inflammatory activity in LPS-indeced mouse RAW264.7 cells assessed as reduction in TNF-alpha level at 10 uM preincubated for 1 hr followed by LPS addition measured after 24 hrs by ELISA. Type of test: functional, cell-based. Particulars: time 25.0 hrs.
Test [7] has as its system Mus musculus. The test is described as follows: Anti-inflammatory activity in BALB/c mouse model of carrageenan-induced paw edema assessed as decrease in plasma 11,12-DHET levels at 10 mg/kg, po measured after 6 hrs. The test is classed as functional, organism-based.
For test [8], the system named is RAW264.7. The test is described as follows: Anti-inflammatory activity in LPS-indeced mouse RAW264.7 cells assessed as reduction in IL-1beta level at 10 uM preincubated for 1 hr followed by LPS addition measured after 24 hrs by ELISA. Type of test: functional, cell-based.
Test [9] deals with Mus musculus. Kind of test: Anti-inflammatory activity in BALB/c mouse model of carrageenan-induced paw edema assessed as increase in ratio of 14,15-EET to DHET plasma levels at 10 mg/kg, po measured after 6 hrs. Type of test: functional, organism-based.
The test system of test [10] is Mus musculus. The test is described as follows: Anti-inflammatory activity in BALB/c mouse model of carrageenan-induced paw edema assessed as increase in ratio of 11,12-EET to DHET plasma levels at 10 mg/kg, po measured after 6 hrs. The test is classed as functional, organism-based.
The subject of test [11] is RAW264.7. Kind of test: Anti-inflammatory activity in LPS-indeced mouse RAW264.7 cells assessed as reduction in IL-6 level at 10 uM preincubated for 1 hr followed by LPS addition measured after 24 hrs by ELISA. The test is classed as functional, cell-based.
The test system of test [12] is Mus musculus. The test is described as follows: Anti-inflammatory activity in BALB/c mouse model of carrageenan-induced paw edema assessed as decrease in plasma 8,9-DHET levels at 10 mg/kg, po measured after 6 hrs. Type of test: functional, organism-based.
In test [13] the test system is RAW264.7. Kind of test: Effect on IL-10 level in LPS-indeced mouse RAW264.7 cells at 10 uM preincubated for 1 hr followed by LPS addition measured after 24 hrs by ELISA. The test is classed as functional, cell-based.
Test [14] deals with Mus musculus. The test is described as follows: Anti-inflammatory activity in BALB/c mouse model of carrageenan-induced paw edema assessed as inhibition of paw swelling at 10 mg/kg, po measured up to 6 hrs relative to control. The test is classed as functional.
Test [15] has as its system Mus musculus. Kind of test: Effect on liver sEH protein content in BALB/c mouse model of carrageenan-induced paw edema at 1 to 10 mg/kg, po measured after 6 hrs. The test is classed as functional, organism-based. Particulars: dose 1-10 mg/kg.
For test [16], the system named is Mus musculus. Kind of test: Anti-inflammatory activity in BALB/c mouse model of carrageenan-induced paw edema assessed as inhibition of paw swelling at 20 mg/kg, po measured for 0.5 hrs relative to control. The test is classed as functional. Particulars: Mus musculus, BALB/c.
The test system of test [17] is Mus musculus. Kind of test: Anti-inflammatory activity in BALB/c mouse model of carrageenan-induced paw edema assessed as inhibition of paw swelling at 20 mg/kg, po measured for 4 hrs relative to control. Type of test: functional.
Test [18] has as its target T1, Bifunctional epoxide hydrolase 2 (Mus musculus, UniProt P34914).
T1 sequence (P34914 whole entry): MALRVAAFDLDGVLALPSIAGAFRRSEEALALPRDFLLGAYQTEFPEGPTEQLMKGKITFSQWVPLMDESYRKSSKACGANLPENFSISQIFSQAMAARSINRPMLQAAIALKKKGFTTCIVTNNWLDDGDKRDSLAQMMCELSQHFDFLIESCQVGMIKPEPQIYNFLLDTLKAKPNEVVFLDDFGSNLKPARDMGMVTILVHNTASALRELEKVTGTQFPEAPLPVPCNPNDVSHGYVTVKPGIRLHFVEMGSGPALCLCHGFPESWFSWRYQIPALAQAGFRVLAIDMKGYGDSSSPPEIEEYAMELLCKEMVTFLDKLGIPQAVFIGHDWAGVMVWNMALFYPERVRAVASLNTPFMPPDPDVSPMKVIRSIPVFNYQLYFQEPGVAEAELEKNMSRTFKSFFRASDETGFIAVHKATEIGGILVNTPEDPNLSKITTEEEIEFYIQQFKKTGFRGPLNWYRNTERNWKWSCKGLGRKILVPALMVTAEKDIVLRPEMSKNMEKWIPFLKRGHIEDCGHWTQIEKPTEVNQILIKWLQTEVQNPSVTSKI
The test is described as follows: biochemical.
Description: Inhibition of C57BL/6J mouse brain sEH using 14,15-EET as substrate preincubated for 15 mins followed by substrate addition by HPLC-MS analysis

Molecules are shown by their SMILES. Active and inactive are the calls of the source. The calls are words filed in the database; no cut-off is given here.

Usually inhibition in vivo stands for the share of the control response that was lost under treatment. A word on the IC50: it is the concentration that inhibits the measured activity by half. A lower IC50 goes with greater potency.

As for `CC[C@H](C)C(=O)N1CCC(NC(=O)Nc2ccc(OC(F)(F)F)c(F)c2)CC1`, the Activity result with RAW264.7 [1] and with RAW264.7 [13] was “No effect” throughout. Also, the result with Mus musculus [2], with Mus musculus [3], in the test on Mus musculus [4], in the test on RAW264.7 [5], in the test with RAW264.7 [6] and in the test on Mus musculus [7] was Active. Also, the outcome in the test on RAW264.7 [8], in the test on Mus musculus [9], in the test on Mus musculus [10], in the test with RAW264.7 [11], in the test on Mus musculus [12] and with Mus musculus [15] was Active. Further, in the test with Mus musculus [14], the Imax is 30.6%.

For `COc1cc(OC)c2c(c1)C1Cc3ccc(NC(=O)NCc4ccc(OC(F)(F)F)cc4)cc3CN1CC2` (stereo not drawn), the inhibition in vivo at 20 mg/kg worked out at 24.7% with Mus musculus [16] and 38.5% with Mus musculus [17]. For the same compound, 1.44 nM corresponded to half-maximal inhibition in test [18] (IC50).
